Measured values taken from the RepoRT retention time repository.

experiment: Agilent ZORBAX 300 SB-C18, 150 × 1 mm, 3.5 µm; A: water + 0.01% heptafluorobutyric acid; B: acetonitrile + 0.01% heptafluorobutyric acid; gradient (min/%B) 0/0 100/90; details: stereoisomer not certain

COC(=O)C1C2CC3c4[nH]c5cc(OC)ccc5c4CCN3CC2CC(OC(=O)c2cc(OC)c(OC)c(OC)c2)C1OC (configuration not stated) and Cc1nn(CC(=O)NCc2ccccn2)c(=O)c2ccccc12 are within 1.5-fold of each other in LC retention time: 12.4 min for the first, 8.37 min for the second.

CC(C=Cc1ccccc1)=NNC(=O)C(C)Nc1ccc2ccccc2c1 (configuration not stated) and O=C(CNc1ccc2ccccc2c1)NN=Cc1ccccc1 are within 1.5-fold of each other in LC retention time: 16.2 min for the first, 14.8 min for the second.

CCOC(=O)C(N)CCCN=C(N)N (configuration not stated) and CCN(CC)CCOC(=O)c1ccc(N)cc1 are within 1.5-fold of each other in LC retention time: 7.25 min for the first, 8.41 min for the second.

Cc1ccc(-c2cc(C(=O)O)c3ccccc3n2)cc1 and Cc1cc(C)c2ccc3ccccc3c2n1 are the same in LC retention time: 12.4 min for the first, 12.4 min for the second.

Going from Cc1ccc2ccc[n+](C)c2c1 to Cc1ccc(-n2c(C)cc(C=CC(=O)O)c2C)cc1, the LC retention time rises from 7.88 min to 14.4 min (1.8-fold).

COc1ccccc1-n1c(=O)n2n(c1=O)CCCC2 and COC(=O)Cn1c(=O)c2ccccc2n(CC(=O)OC)c1=O are within 1.5-fold of each other in LC retention time: 9.12 min for the first, 10.7 min for the second.

COc1cccc2c1NCCC2 and Cc1cccc(N)c1N are within 1.5-fold of each other in LC retention time: 8.45 min for the first, 7.32 min for the second.

O=C(Nc1ccc(Cc2ccncc2)cc1)c1ccc2ccccc2n1 and CCOC(=O)C(Cc1ccc(NC(=O)c2ccccc2)cc1)N1C(=O)c2ccccc2C1=O (configuration not stated) are within 1.5-fold of each other in LC retention time: 11.4 min for the first, 15.2 min for the second.

Cn1nc(-c2ccccc2)c(-c2ccccc2)c(C(=O)O)c1=O and c1ccc(-c2cc3ccccc3[nH]2)cc1 are within 1.5-fold of each other in LC retention time: 11.2 min for the first, 15.8 min for the second.

CC(C)(C)c1ccc(C(=O)NN=Cc2c[nH]c3ccccc23)cc1 and CC(C)(C)c1ccc(C(=O)NN=Cc2cccnc2)cc1 are within 1.5-fold of each other in LC retention time: 14.2 min for the first, 11.2 min for the second.

CC(=O)NCC(NC(C)=O)C(C)(C)C (configuration not stated) and CCC(C)C(NC(C)=O)C(=O)O (configuration not stated) are within 1.5-fold of each other in LC retention time: 7.28 min for the first, 7.75 min for the second.

Compared with NCCN, CC(O)CCN (configuration not stated) is 1.6-fold lower in LC retention time: 5.99 min for the first, 3.82 min for the second.

CC(=O)c1c[nH]c2ccccc12 and CN(C)Cc1c[nH]c2ccccc12 are within 1.5-fold of each other in LC retention time: 9.25 min for the first, 7.66 min for the second.

Compared with COc1ccc(C2N(c3ccccc3)CCN2c2ccccc2)cc1, c1ccc(N=c2scc(-c3ccccc3)n2-c2ccccc2)cc1 is 1.5-fold lower in LC retention time: 18.6 min for the first, 12.4 min for the second.

CC(C)CC(NC(=O)CN)C(=O)O (configuration not stated) and Cc1ccc(NC(=O)C=CC(=O)O)c(C)c1 are within 1.5-fold of each other in LC retention time: 7.75 min for the first, 10.8 min for the second.

CC(CCc1ccccc1)NC(=S)Nc1cccnc1 (configuration not stated) and c1ccc(CNCCNc2ccccc2)cc1 are within 1.5-fold of each other in LC retention time: 11.1 min for the first, 9.6 min for the second.

CC(C)NCCCNC(C)C and CCN(CC)CCN(CC)CC are within 1.5-fold of each other in LC retention time: 7.27 min for the first, 7.19 min for the second.

O=C(NN=Cc1cccc(O)c1)c1cc2ccccc2cc1O and Cc1ccc(C=NNC(=O)c2ccc(N)cc2)cc1 are within 1.5-fold of each other in LC retention time: 12.2 min for the first, 10.3 min for the second.

First: CN1C2CCC1CC(OC(=O)C(CO)c1ccccc1)C2 (configuration not stated)
Second: O=C(O)CCn1c2c(c3ccccc31)CCCC2
The LC retention time of the first is 1.6-fold lower: 8.92 min for the first, 14.3 min for the second.

CC(Cc1ccccc1)N(C)Cc1ccccc1 (configuration not stated) and CC1CC(O)(CC(O)(c2ccccc2)c2ccccc2)C(C)CN1C (configuration not stated) are within 1.5-fold of each other in LC retention time: 10.8 min for the first, 10.2 min for the second.

CCCc1cc(C(=O)O)ccn1 and CC(=O)Nc1cccc2ncccc12 are within 1.5-fold of each other in LC retention time: 6.01 min for the first, 6.92 min for the second.

OCc1ccccc1CNC1CCCCC1 and OCc1cccnc1-c1ncccc1CO are within 1.5-fold of each other in LC retention time: 8.87 min for the first, 6.38 min for the second.

CN(C)CCCN1CCC(=O)C2CCCCC21 (configuration not stated) and COC(=O)CCN1CCCCC1 are within 1.5-fold of each other in LC retention time: 7.52 min for the first, 7.02 min for the second.

First: Cc1ccc2c(c1N)C(=O)c1ccccc1C2=O
Second: COc1ccc(N2C(=O)C=CC2=O)cc1
The LC retention time of the first is 1.5-fold higher: 14.9 min for the first, 9.62 min for the second.

COc1cc(C)c(NC(C)=O)c(C)c1 and Cc1cc(C)c(NC(=O)Nc2ccccc2)c(C)n1 are within 1.5-fold of each other in LC retention time: 8.85 min for the first, 8.82 min for the second.

CNCc1n[nH]c(=O)[nH]1 and O=C(O)Cc1c[nH]c(=O)[nH]c1=O are within 1.5-fold of each other in LC retention time: 2.58 min for the first, 2.17 min for the second.

Nc1cccc(CO)c1 and OCC1Cc2ccccc2CN1 (configuration not stated) are within 1.5-fold of each other in LC retention time: 6.28 min for the first, 7.39 min for the second.

First: Cn1c(=O)cc(C(=O)O)[nH]c1=O
Second: Cc1cc(C)n(CCO)c(=O)n1
The LC retention time of the first is 3.8-fold lower: 1.57 min for the first, 5.92 min for the second.

c1ccn(-c2ccc3cn[nH]c3c2)c1 and c1ccc(-n2cnnn2)cc1 are within 1.5-fold of each other in LC retention time: 11.8 min for the first, 9.44 min for the second.

C#CC1(N)CCCCC1 and NC1CCCC1 are within 1.5-fold of each other in LC retention time: 7.77 min for the first, 6.51 min for the second.

O=C(O)CNC(=O)c1ccccc1 and O=c1[nH]c2ccccc2[nH]c1=S are within 1.5-fold of each other in LC retention time: 7.38 min for the first, 7.24 min for the second.

C1=Nc2ccccc2C(c2cccc3ccccc23)C1c1ccc2ccccc2n1 (configuration not stated) and COc1ccc(C=CC(=O)C=Cc2ccc(OC)cc2)cc1 are within 1.5-fold of each other in LC retention time: 12.9 min for the first, 16.1 min for the second.

Cc1cccc(Nc2cc(=O)[nH]c(=O)[nH]2)c1C and CC(C)C1CN(Cc2ccco2)CCN1 (configuration not stated) are within 1.5-fold of each other in LC retention time: 8.71 min for the first, 7.94 min for the second.

Compound CC1(C)CC(N)CC(C)(CN)C1 (configuration not stated) has an LC retention time of 7.39 min.
